Assay results: patent publication EP3991732A1, “USE OF CLOFAZIMINE IN HEPATOCELLULAR CARCINOMA” (UNIVERSITE DE GENEVE, priority 2020, dated 2022)

Legend:
Huh7 = experiment: MTT survival assay, Huh7; assay type: cell-based; conditions: Homo sapiens, Huh-7, Huh7 cells, incubation 4-7 days
Method: (§1) The four hepatocellular carcinoma (HCC) cell lines were tested in MTT survival assay with clofazimine as described below: 50 µl of the indicated cell lines re-suspended at 60'000 cells/ml for HepG2, Hep3B, at 35'000/ml for Huh7 and at 40'000/ml for SNU398 were added into each well of a transparent 384-well plate. The cells were maintained in DMEM containing 10% FBS for Hep3B; RPMI with 10% FBS for SNU398; DMEM without glucose containing 10% FBS and 1g/L glucose for Huh7 and MEM without glucose containing 10% FBS for HepG2 and incubated at 37°C, 5% CO2 overnight. The medium of each well was replaced by 100 µl fresh medium the next day containing the indicated concentrations of clofazimine. After incubation for 4-7 days (depending on the growth rate of line), the medium in each well was replaced by 50 µl of 0.5 mg/ml Thiazolyl blue (Carl Roth) solution in 1xPBS. The plates were incubated for 3h at 37°C. Then the solution was removed and 50 µl DMSO was added into each well. Absorbance at 570 nm was measured in a Tecan Infinite M200 PRO plate reader.

Wnt signalling (Hep3B) = experiment: TopFlash dual luciferase assay, Hep3B; assay type: cell-based, human
Method: (§2) Briefly, 50 µl of indicated cell lines at 84'000/ml for Huh7, or 96'000/ml for SNU398, or 144'000/ml for HepG2, Hep3B were distributed in a white opaque 384-well plate. The cells were maintained in their respective culture mediums and incubated at 37°C, 5% CO2 overnight for attachment. Afterwards, the cells are double-transfected (1:1 mixture) with the Wnt-specific TopFlash reporter plasmid (Syngene) and a Wnt-independent CMV-Renilla plasmid monitoring the general level of cell transcription (Addgene, Cambridge, MA, USA). The relative nature of this representation (ratio of the TopFlash to the CMV-Renilla levels) permits to compare Wnt pathway levels across cell types, being independent from individual cell transfection efficiency.
(§3) Transfection was carried out as described in the manufacturer's protocol using 12 µg/ml of DNA and 40 µl/ml XtremeGENE 9 reagent (Roche). The next day, the medium of each well was replaced 30 µl fresh medium containing Wnt3a (500 ng/ml) (purified as described by (Koval and Katanaev, 2011, Biochemical Journal 433, 435) or GSK3β inhibitor (CHIR99021, Sigma-Aldrich) and clofazimine at 5, 10, and 15 µM concentrations (following 1h of preincubation with the compound). After overnight incubation, the supernatant in each well was removed and the luciferase activity was measured as described (Koval and Katanaev, 2011, supra). […]

Wnt signalling (HepG2) = experiment: TopFlash dual luciferase assay, HepG2; assay type: cell-based, human
Method: as §2, §3

HepG2 = experiment: MTT survival assay, HepG2; assay type: cell-based; conditions: Homo sapiens, HepG2 cells, incubation 4-7 days
Method: as §1

Wnt signalling (SNU398) = experiment: TopFlash dual luciferase assay, SNU398; assay type: cell-based, human
Method: as §2, §3

Hep3B = experiment: MTT survival assay, Hep3B; assay type: cell-based, human
Method: as §1

Wnt signalling (Huh7) = experiment: TopFlash dual luciferase assay, Huh7; assay type: cell-based, human
Method: as §2, §3

SNU398 = experiment: MTT survival assay, SNU398; assay type: cell-based, human
Method: as §1

[1] = clofazimine 5, 10, 15 µM, Wnt3a 500 ng/ml
[2] = versus relatively low basal level

| inhibiting effect on Wnt signaling (Wnt3a-induced response in the TopFlash assay) (Wnt signalling (Hep3B); [1]) | inhibiting effect on Wnt signaling (Wnt3a-induced response in the TopFlash assay) (Wnt signalling (HepG2); [1]) | inhibiting effect on Wnt signaling (Wnt3a-induced response in the TopFlash assay) (Wnt signalling (SNU398); [1]) | inhibiting effect on Wnt signaling (Wnt3a-induced response in the TopFlash assay) (Wnt signalling (Huh7); [1]) | stimulation of Wnt signalling levels by activator (TopFlash) (Wnt signalling (Hep3B); [2]) | stimulation of Wnt signalling levels by activator (TopFlash) (Wnt signalling (Huh7); [2]) | SMILES | IC50 (Huh7) [µM] | IC50 (HepG2) [µM] | stronger sensitivity to growth inhibition than HepG2 and Huh7 (Hep3B; Hep3B versus HepG2 and Huh7, MTT assay) [fold] | IC50 (Hep3B; Homo sapiens, Hep3B cells, MTT, incubation 4-7 days) [µM] | IC50 (SNU398; Homo sapiens, SNU-398, SNU398 cells, MTT, incubation 4-7 days) [µM] | stronger sensitivity to growth inhibition than HepG2 and Huh7 (SNU398; SNU398 versus HepG2 and Huh7, MTT assay) [fold] | stimulation of Wnt signalling levels by activator (TopFlash) (Wnt signalling (HepG2); versus very high basal level) | stimulation of Wnt signalling levels by activator (TopFlash) (Wnt signalling (SNU398); versus very high basal level) |
| --- | --- | --- | --- | --- | --- | --- | --- | --- | --- | --- | --- | --- | --- | --- |
| inhibited | non-responsive | inhibited | non-responsive | – | – | CC(C)N=c1cc2n(-c3ccc(Cl)cc3)c3ccccc3nc-2cc1Nc1ccc(Cl)cc1 [clofazimine, N,5-bis(4-chlorophenyl)-3-(propan-2-ylimino)-3,5-dihydrophenazin-2-amine] | 13 | 17 | > 10 | 1 to 2 | 1 to 2 | > 10 | – | – |
| – | – | – | – | strongly stimulated | strongly stimulated | Cc1c[nH]c(-c2cnc(NCCNc3ccc(C#N)cn3)nc2-c2ccc(Cl)cc2Cl)n1 [CHIR99021] | – | – | – | – | – | – | not at all or to at best limited extent further increased | not at all or to at best limited extent further increased |
